We go through 25 compounds from patent US20030134859A1 (SANKYO COMPANY, LIMITED, priority 2000, published 2003).

The assay has as its target T1, human PPAR γ 2 (Homo sapiens, UniProt P37231).
T1 construct: expressed in transfected cells; host or cells: human osteosarcoma MG63, transiently co-transfected with pSG5-hPPARg and the reporter pGV-P2-PPRE
T1 sequence (P37231 1-505): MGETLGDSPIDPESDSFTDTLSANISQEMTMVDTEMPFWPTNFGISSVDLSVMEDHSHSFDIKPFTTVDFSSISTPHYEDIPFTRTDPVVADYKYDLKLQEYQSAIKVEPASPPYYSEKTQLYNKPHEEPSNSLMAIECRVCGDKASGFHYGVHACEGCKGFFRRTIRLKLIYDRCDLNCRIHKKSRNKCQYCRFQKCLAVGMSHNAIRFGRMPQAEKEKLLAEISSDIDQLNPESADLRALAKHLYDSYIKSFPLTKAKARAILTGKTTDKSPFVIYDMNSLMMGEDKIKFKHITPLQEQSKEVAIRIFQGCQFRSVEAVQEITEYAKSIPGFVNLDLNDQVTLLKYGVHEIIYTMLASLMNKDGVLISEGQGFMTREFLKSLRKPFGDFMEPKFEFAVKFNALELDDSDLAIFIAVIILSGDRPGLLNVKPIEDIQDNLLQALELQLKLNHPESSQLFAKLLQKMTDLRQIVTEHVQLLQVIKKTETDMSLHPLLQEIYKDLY
Put plainly: Inhibitory activity against PPAR γ transcription in the presence of agonist compound A, luciferase reporter. In kind it is cell-based. The settings on record: in the presence of 10 nM compound A (agonist); MG63 cells transfected with pSG5-hPPARg and pGV-P2-PPRE; 24 hr.
For the compound `O=C(Nc1ccc(-c2ccc(NC(=O)c3cc([N+](=O)[O-])ccc3Cl)cc2)cc1)c1ccccc1` [Example 120, N-[4-(4-Benzoylaminophenyl)phenyl]-(2-chloro-5-nitrophenyl)carboxamide], the IC50 was 13 nM.

On to `O=C(Nc1ccc(-n2ccnc2)cc1)c1cc([N+](=O)[O-])ccc1Cl` [Example 174, N-[4-(Imidazol-1-yl)phenyl]-(2-chloro-5-nitrophenyl)carboxamide], for which the IC50 came out at 9.4 nM.

As to `O=C(Nc1ccc(Cl)nn1)c1cc([N+](=O)[O-])ccc1Cl` [Example 89], the IC50 was 400 nM.

As to `O=C(Nc1ccc(-c2ccc(N3CCCCC3)cc2)cc1)c1cc([N+](=O)[O-])ccc1Cl` [Example 177, N-[4-[4-(Piperidin-1-yl)phenyl]phenyl]-(2-chloro-5-nitrophenyl)carboxamide], the IC50 amounted to 94 nM.

Take `CCCN(CCC)c1ccc(-c2ccc(NC(=O)c3cc([N+](=O)[O-])ccc3Cl)cc2)cc1` [Example 194, N-[4-[4-(N,N-Dipropylamino)phenyl]phenyl]-(2-chloro-5-nitrophenyl)carboxamide]: the IC50 worked out at 330 nM.

With `O=C(Nc1ccc(S(=O)(=O)N2CCOCC2)cc1)c1cc([N+](=O)[O-])ccc1Cl` [Example 153, N-[4-(Morpholin-4-ylsulfonyl)phenyl]-(2-chloro-5-nitrophenyl)carboxamide], the IC50 was determined as 49 nM.

In the case of `O=C(Nc1ccc(NS(=O)(=O)c2ccccc2)cc1)c1cc([N+](=O)[O-])ccc1Cl` [Example 127, N-(4-Benzenesulfonylaminophenyl)-(2-chloro-5-nitrophenyl)carboxamide], the IC50 was 11 nM.

Consider “N-[4-(4-Methylbenzoylamino)phenyl]phenyl]-(2-chloro-5-nitrophenyl)carboxamide [Example 122]”, for which the IC50 was determined as 7.6 nM.

As to `Cc1noc(NS(=O)(=O)c2ccc(NC(=O)c3cc([N+](=O)[O-])ccc3Cl)cc2)c1C` [Example 104, N-[4-[(3,4-Dimethylisoxazol-6-yl)aminosulfonyl]phenyl]-(2-chloro-5-nitrophenyl)carboxamide], the IC50 is 270 nM.

With `Cc1nnc(NS(=O)(=O)c2ccc(NC(=O)c3cc([N+](=O)[O-])ccc3Cl)cc2)s1` [Example 101, N-[4-[(5-Methyl-[1,3,4]thiadiazol-2-yl)aminosulfonyl]phenyl]-(2-chloro-5-nitrophenyl)carboxamide], the IC50 came to 61 nM.

With `O=C(Nc1ccc(-c2ccc(NC(=O)c3cc([N+](=O)[O-])ccc3Cl)cc2)cc1)c1cccnc1` [Example 124, N-[4-[4-(Pyridin-3-ylcarbonylamino)phenyl]phenyl]-(2-chloro-5-nitrophenyl)carboxamide], the IC50 stood at 8.1 nM.

As to `CC(C)(C)OC(=O)Nc1ccc(-c2csc(NC(=O)c3cc([N+](=O)[O-])ccc3Cl)n2)cc1` [Example 190, N-[4-(4-tert-Butoxycarbonylaminophenyl)thiazol-2-yl]-(2-chloro-5-nitrophenyl)carboxamide], the IC50 came to 36 nM.

As for “N-[4-(Benzenesulfonylaminophenyl)phenyl]-(2-chloro-5-nitrophenyl)carboxamide [Example 128]”, the IC50 is 35 nM.

On to `O=C(Nc1ccc(S(=O)(=O)N2CCCCC2)cc1)c1cc([N+](=O)[O-])ccc1Cl` [Example 151, N-[4-(Piperidyisulfonyl)phenyl]-(2-chloro-5-nitrophenyl)carboxamide], for which the IC50 is 12 nM.

With `CCCCCCN(CC)c1ccc(NC(=O)c2cc([N+](=O)[O-])ccc2Cl)cc1` [Example 188, N-[4-(N-Ethyl-N-hexylamino)phenyl]-(2-chloro-55 nitrophenyl)carboxamide], the half-inhibitory concentration (IC50) turned out to be 33 nM.

`CC(C)(C)c1cc(NS(=O)(=O)c2ccc(NC(=O)c3cc([N+](=O)[O-])ccc3Cl)cc2)cc(C(C)(C)C)c1O` [Example 175, N-[4-[(3,5-di-tert-Butyl-4-hydroxyphenyl)aminosulfonyl]phenyl]-(2-chloro-5-nitrophenyl)carboxamide]: the IC50 is 99 nM.

Take `O=C(Nc1ccc(-c2ccc(NC(=O)c3cc([N+](=O)[O-])ccc3Cl)cc2)cc1)c1ccncc1` [Example 126, N-[4-[4-(Pyridin-4-ylcarbonylamino)phenyl]phenyl]-(2-chloro-5-nitrophenyl)carboxamide]: the IC50 turned out to be 14 nM.

“N-[3-(Pyrrolidinylsulfonyl)phenyl]-(2-chloro-5-nitrophenyl)carboxamide [Example 154]”: the IC50 is 81 nM.

For `O=C(Nc1ccc(C(=O)N2CCCCC2)cc1)c1cc([N+](=O)[O-])ccc1Cl` [Example 159, N-[4-(Piperidylcarbonyl)phenyl]-(2-chloro-5-nitrophenyl)carboxamide], the IC50 is 11 nM.

For the compound `CCS(=O)(=O)Nc1ccc(-c2ccc(NC(=O)c3cc([N+](=O)[O-])ccc3Cl)cc2)cc1` [Example 130, N-[4-(4-Ethanesulfonylaminophenyl)phenyl]-(2-chloro-5-nitrophenyl)carboxamide], the IC50 was 11 nM.

For the compound `CC(=O)Nc1ccc(-c2ccc(NC(=O)c3cc([N+](=O)[O-])ccc3Cl)cc2)cc1` [Example 118, N-[4-(4-Acetylaminophenyl)phenyl]-(2-chloro-5-nitrophenyl)carboxamide], the IC50 is 8.6 nM.

As for `O=C(Nc1cnccn1)c1cc([N+](=O)[O-])ccc1Cl` [Example 140, N-(Pyrazin-2-yl)-(2-chloro-5-nitrophenyl)carboxamide], the IC50 is 110 nM.

With `CC(=O)c1cccc(NC(=O)c2cc([N+](=O)[O-])ccc2Cl)c1` [Example 156, N-(3-Acetylphenyl)-(2-chloro-5-nitrophenyl)carboxamide], the IC50 amounted to 100 nM.

On to “N-[4-[4-(Pyrrolidin-1-ylamino)phenyl]phenyl]-(2-chloro-5-nitrophenyl)carboxamide [Example 171]”, for which the IC50 is 48 nM.

Turning to `CC(=O)c1ccc(NC(=O)c2cc([N+](=O)[O-])ccc2Cl)cc1` [Example 155, N-(4-Acetylphenyl)-(2-chloro-5-nitrophenyl)carboxamide], the concentration for half-maximal inhibition (IC50) came to 9.8 nM.
